According to patent US20220090021A1, “IN VITRO HUMAN BLOOD BRAIN BARRIER” (Massachusetts Institute of Technology, priority 2019, published 2022):

Legend:
APOE = APOE gene expression in iPSC-derived pericytes after two weeks of CaN inhibition (qRT-PCR); assay type: cell-based, human
Procedure: Total RNA was isolated using Trizol and zymogen RNA-direct spin column treated with DNAse on column of 30 minutes prior to washing and elution. For RT-PCRs, 500 ng of total RNA was reverse transcribed into cDNA with iScript (BioRad). Expression was quantified by SsoFast EvaGreen supermix (BioRad). For RNAsequencing, extracted total RNA was subject to QC using an Advanced Analytical-fragment Analyzer before library preparation using Illumina Neoprep stranded RNA-seq library preparation kit. Libraries were pooled for sequencing using Illumina HiSeq2000 or NextSeq500 platforms at the MIT Biomicro Center. The raw fastq data were aligned to human hg19 assembly using STAR 2.4.0 RNA-seq aligner. Mapped RNA-seq reads covering the edited APOE3/4 site were used to validate data genotypes. Gene raw counts were generated from the mapped data using feature Counts tool. The mapped reads were also processed by Cufflinks2.2 with hg19 reference gene annotation to estimate transcript abundances. Gene differential expression test between APOE3 and APOE4 groups of each cell type was performed using Cuffdiff module with adjusted q-value <0.05 for statistical significance. Geometric method was chosen as the library normalization method for Cuffdiff. Color-coded scatterplots were used to visualize group FPKM values for differentially expressed genes and other genes.

E3/3 iBBB = test: Amyloid accumulation in E3/3 iBBB exposed to conditioned media from inhibitor-treated E4/4 pericytes; assay type: cell-based, human; conditions: media harvested from inhibitor-treated E4/4 pericytes, versus DMSO
Procedure: (§1) Amyloid accumulation was determined using both neuronal cell conditioned media and 20 nM recombinant labeled Hilyte fluor 488 β-amyloid (1-40) (Anaspec, AS-60491-01) and β-amyloid (1-42) (Anaspec, AS-60479-01) resuspended in PBS. Aβ accumulation for each cell line and experimental permutation was determined from 2D cultures containing all three cells types containing same ratio of cells as 3D experiments. Total area positive for Aβ was divided by the total number of nuclei and normalized to experimental controls. At least four images for each biological replicate were analyzed and for each condition at least three biological replicates were employed. 2D quantifications were corroborated by 3D imaging and analysis.
We then added 20 nM Aβ1-40/42-FITC to the cultures for an additional 48 hours after which we quantified the accumulation of AP-FITC for each condition.

iBBB [1] = test system: iBBB
Description: To more fully assess the barrier properties of the iBBB we compared the paracellular permeability of molecules with molecular weights ranging from 0.1 to 80 kDa. […] To rule out the possibility that the reduced permeability of the iBBB was simply the result of additional layers of cells, we layered on top of BECs double the normal number of pericyte-only, astrocytes-only or a non-relevant cell type, mouse embryonic fibroblasts (MEFs).
The genotype distinction between APOE4/4 cells (isogenic) and APOE3/3 (parental) was assessed in terms of permeability of an iBBB membrane. FIG. 13A presents a schematic showing the iBBB with fluorescent molecules positioned on the Apical surface, which are then allowed to transition through the iBBB from the Apical surface to the Basolateral surface (FIG. 13B).

iBBB [2] = test: Amyloid (Aβ-FITC) accumulation in iBBB; assay type: cell-based, human; conditions: APOE3/3 iBBB; APOE raised to approximately 200 ng/ml, E3 or E4; labeled Aβ for 96 hours
Procedure: as §1

Compound: O=C1C=CC(=O)C2=C1C1c3ccccc3C2c2ccccc21 [INCA6]
- APOE expression (APOE; APOE4/4 pericytes, two weeks, CsA 2 μM, FK506 5 μM, INCA6 5 μM, qRT-PCR): significantly reduced
- expression of APOE (APOE; E3/4 heterozygous pericytes from three individuals): significant reduction
- amyloid accumulation (E3/3 iBBB): significantly reduced

Compound: transferrin: fluorescently labeled Transferrin (ThermoFisher T-13342), permeability tracer
- permeability and accumulation on the Basolateral surface, APOE4/4 iBBB versus parental APOE3/3 iBBB (iBBB [1]): greater permeability

Compound: recombinant human APOE protein: recombinant human APOE protein (E3 or E4) added to iBBB culture media
- Aβ accumulation (iBBB [2]): increase

Compound: Aβ42-FITC: FITC-labeled amyloid-β 1-42 peptide
- permeability and accumulation on the Basolateral surface, APOE4/4 iBBB versus parental APOE3/3 iBBB (iBBB [1]): greater permeability
